We go through one molecule from ChEMBL document CHEMBL1921749, “5-Lipoxygenase-activating protein (FLAP) inhibitors. Part 4: development of 3-[3-tert-butylsulfanyl-1-[4-(6-ethoxypyridin-3-yl)benzyl]-5-(5-methylpyridin-2-ylmethoxy)-1H-indol-2-yl]-2,2-dimethylpropionic acid (AM803), a potent, oral, once daily FLAP inhibitor” (J Med Chem, 2011).

Series [1] is described as follows: Plasma concentration in rat at 3 mg/kg, po after 4 hrs. It is filed as ADME, organism-based. The arrangement: dose 3 mg/kg, route oral.
The target in series [2] is T1, Leukotriene A-4 hydrolase (Homo sapiens, UniProt P09960).
T1 sequence (P09960 whole entry): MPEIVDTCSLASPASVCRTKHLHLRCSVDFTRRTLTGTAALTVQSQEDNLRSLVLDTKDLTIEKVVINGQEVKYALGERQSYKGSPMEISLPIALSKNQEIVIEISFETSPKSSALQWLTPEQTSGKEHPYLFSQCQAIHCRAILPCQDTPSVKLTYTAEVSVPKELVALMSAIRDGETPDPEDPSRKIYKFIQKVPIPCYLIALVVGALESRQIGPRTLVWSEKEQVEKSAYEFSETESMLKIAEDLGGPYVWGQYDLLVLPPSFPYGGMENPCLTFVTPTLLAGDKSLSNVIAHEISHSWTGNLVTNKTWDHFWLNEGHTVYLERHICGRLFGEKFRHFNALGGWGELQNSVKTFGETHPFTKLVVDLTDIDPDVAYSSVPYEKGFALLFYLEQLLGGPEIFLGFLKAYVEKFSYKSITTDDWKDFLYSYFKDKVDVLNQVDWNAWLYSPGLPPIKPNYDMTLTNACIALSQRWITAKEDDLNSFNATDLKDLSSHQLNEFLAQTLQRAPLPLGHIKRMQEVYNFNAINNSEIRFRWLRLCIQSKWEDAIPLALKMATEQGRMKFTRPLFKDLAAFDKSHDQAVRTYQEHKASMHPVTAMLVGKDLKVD
Put plainly: Inhibition of LTA4 […].

The target of series [3] is Cytochrome P450 2C19 (Homo sapiens, UniProt P33261). Put plainly: Inhibition of human CYP2C19. It is filed as ADME.
Cytochrome P450 2C19, sequence (P33261 whole entry): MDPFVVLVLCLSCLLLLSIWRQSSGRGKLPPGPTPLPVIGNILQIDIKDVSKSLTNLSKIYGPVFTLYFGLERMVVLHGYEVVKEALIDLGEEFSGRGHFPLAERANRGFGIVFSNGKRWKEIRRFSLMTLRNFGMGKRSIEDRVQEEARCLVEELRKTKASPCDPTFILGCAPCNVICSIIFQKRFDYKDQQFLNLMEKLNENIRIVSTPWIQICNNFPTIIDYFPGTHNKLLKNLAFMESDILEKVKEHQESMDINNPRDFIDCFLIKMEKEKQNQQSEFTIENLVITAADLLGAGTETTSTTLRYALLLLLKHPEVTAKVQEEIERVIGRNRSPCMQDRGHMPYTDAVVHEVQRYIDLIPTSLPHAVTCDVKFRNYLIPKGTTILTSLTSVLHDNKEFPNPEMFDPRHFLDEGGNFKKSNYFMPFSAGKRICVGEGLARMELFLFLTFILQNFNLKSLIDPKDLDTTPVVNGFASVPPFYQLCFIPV
For series [4], the target named is T2, Polyunsaturated fatty acid 5-lipoxygenase (Homo sapiens, UniProt P09917).
T2 sequence (P09917 whole entry): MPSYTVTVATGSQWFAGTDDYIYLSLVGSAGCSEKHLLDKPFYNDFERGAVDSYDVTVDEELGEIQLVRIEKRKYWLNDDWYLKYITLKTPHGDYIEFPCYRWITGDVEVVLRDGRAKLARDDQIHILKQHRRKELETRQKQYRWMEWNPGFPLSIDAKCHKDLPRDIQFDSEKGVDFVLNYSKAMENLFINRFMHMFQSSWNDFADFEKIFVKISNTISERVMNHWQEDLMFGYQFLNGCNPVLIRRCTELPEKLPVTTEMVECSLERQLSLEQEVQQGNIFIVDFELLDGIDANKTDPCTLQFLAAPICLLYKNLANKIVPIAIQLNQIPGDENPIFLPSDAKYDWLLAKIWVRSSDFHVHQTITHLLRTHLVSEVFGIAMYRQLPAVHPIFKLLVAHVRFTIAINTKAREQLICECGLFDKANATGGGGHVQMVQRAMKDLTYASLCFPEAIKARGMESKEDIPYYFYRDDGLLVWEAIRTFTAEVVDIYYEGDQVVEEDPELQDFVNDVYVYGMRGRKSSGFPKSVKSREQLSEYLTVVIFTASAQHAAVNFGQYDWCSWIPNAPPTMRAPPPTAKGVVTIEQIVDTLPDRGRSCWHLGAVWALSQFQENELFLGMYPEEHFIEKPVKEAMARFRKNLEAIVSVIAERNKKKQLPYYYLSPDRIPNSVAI
As to the kind of experiment: Inhibition of 5-lipoxygenase.

Series [5] in a line: Plasma protein binding in rat. It is filed as ADME, cell-free. The settings on record: read-out: PPB (converted).
Series [6] deals with T3, Arachidonate 5-lipoxygenase-activating protein (Homo sapiens, UniProt P20292).
T3 sequence (P20292 whole entry): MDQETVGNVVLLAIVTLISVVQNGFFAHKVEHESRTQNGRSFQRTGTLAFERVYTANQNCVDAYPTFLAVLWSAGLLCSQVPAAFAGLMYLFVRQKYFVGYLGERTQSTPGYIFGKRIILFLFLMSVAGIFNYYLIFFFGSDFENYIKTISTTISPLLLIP
Put plainly: Inhibition of FLAP in human whole blood assessed as inhibition of calcium ionophore A23187-induced LTB4 production preincubated for 5 hrs by ELISA. (An ELISA detects its analyte on a solid surface through an enzyme-linked reagent.)

In series [7] the target is T4, Prostaglandin G/H synthase 2 (Homo sapiens, UniProt P35354).
T4 sequence (P35354 whole entry): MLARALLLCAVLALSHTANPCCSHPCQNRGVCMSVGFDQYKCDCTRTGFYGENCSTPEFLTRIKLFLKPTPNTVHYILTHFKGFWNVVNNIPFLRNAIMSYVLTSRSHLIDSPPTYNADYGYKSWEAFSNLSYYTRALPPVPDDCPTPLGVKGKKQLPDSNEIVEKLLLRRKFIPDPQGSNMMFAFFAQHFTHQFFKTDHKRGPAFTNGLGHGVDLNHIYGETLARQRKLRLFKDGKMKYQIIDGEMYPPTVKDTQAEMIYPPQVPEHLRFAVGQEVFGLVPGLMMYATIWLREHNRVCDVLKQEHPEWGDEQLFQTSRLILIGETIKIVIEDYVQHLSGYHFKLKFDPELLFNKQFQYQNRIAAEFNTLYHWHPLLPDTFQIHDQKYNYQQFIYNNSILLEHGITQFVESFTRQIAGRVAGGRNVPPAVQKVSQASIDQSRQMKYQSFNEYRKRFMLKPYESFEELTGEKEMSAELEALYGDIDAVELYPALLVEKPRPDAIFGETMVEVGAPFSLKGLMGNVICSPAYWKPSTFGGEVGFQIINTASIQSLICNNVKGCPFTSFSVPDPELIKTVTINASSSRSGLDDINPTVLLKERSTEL
Put plainly: Inhibition of COX2-mediated PGE2 production in human whole blood assay.

The test system of series [8] is Rattus norvegicus. As to the kind of experiment: Antiinflammatory activity in rat assessed as inhibition of calcium ionophore A23187-induced LTB4 production in bronchoalveolar lavage fluid at 3 mg/kg, po administered 4 hrs prior to A23187 challenge. The series is classed as functional, Lung. The arrangement: scale not given: the % may be the effect or the level left.

Series [9] concerns Plasma. As to the kind of experiment: Plasma protein binding in dog. The series is classed as ADME, cell-free, Canis lupus familiaris.
Series [10] is described as follows: Plasma protein binding in human. It is filed as ADME, cell-free. The note with it: read-out: PPB (converted).

What is called IC50 is the concentration needed to halve the response being measured. For `CCOc1ccc(-c2ccc(Cn3c(CC(C)(C)C(=O)O)c(SC(C)(C)C)c4cc(OCc5ccc(C)cn5)ccc43)cc2)cn1` [FIBOFLAPON], the concentration at 4 h in [1] turned out to be 1000 nM. Besides, the IC50 is more than 100 µM in series [2]; more than 40 µM in series [3]; 20 µM in [4]; 0.076 µM in [6]; more than 100 µM in series [7]. Moreover, the fraction unbound in [5] is 0.002; in series [10], 0.005. In addition, in series [8], the Activity came out at 100%. The molecule further gave a PPB in series [9] of 99.7%.
